Structures can show the parent of a compound that is named as a salt. A value given as a limit tells only on which side of the number the result lay.

Sequence of human σ1 receptor (Q99720 whole entry): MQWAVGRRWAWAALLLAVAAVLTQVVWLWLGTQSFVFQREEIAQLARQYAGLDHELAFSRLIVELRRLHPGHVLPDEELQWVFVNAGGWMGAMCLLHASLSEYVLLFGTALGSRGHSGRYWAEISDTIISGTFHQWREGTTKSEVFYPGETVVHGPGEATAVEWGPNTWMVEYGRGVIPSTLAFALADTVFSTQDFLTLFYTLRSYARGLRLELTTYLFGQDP

The first experiment addresses human σ1 receptor (Homo sapiens, UniProt Q99720). Kind of experiment: biochemical. In kind it is binding. Also on record: μ and σ1 dual binding: key to the marks not given beside the values.
Conditions: not given
`O=C1N(c2ccccc2)CC2(CCN(CC(O)c3ccccc3)CC2)OC12CC2` (stereo not drawn) [Example 277, 8-(2-hydroxy-2-phenylethyl)-12-phenyl-4-oxa-8,12-diazadispiro[2.1.5.3]tridecan-13-one] gave a Ki of less than 0.1 µM.
On to `COc1cccc(N2CC3(CCN(CCc4ccccc4)CC3)OC(C)C2=O)n1` (stereo not drawn) [Example 211, 4-(6-methoxypyridin-2-yl)-2-methyl-9-phenethyl-1-oxa-4,9-diazaspiro[5.5]undecan-3-one hydrochloride], for which the Ki was less than 0.5 µM.
The same measure, in the same setting: to `CC1OC2(CCN(CCc3ccccc3)CC2)CN(CCc2cccnc2)C1=O` (stereo not drawn) [Example 175, 2-methyl-9-phenethyl-4-(2-(pyridin-3-yl)ethyl)-1-oxa-4,9-diazaspiro[5.5]undecan-3-one dihydrochloride] belongs less than 0.5 µM.
For the compound `CN(C)C(=O)CC1OC2(CCN(CCc3ccccc3)CC2)CN(c2ccccc2)C1=O.Cl` (stereo not drawn) [Example 272, N,N-dimethyl-2-(3-oxo-9-phenethyl-4-phenyl-1-oxa-4,9-diazaspiro[5.5]undecan-2-yl)acetamide hydrochloride], the “μ and σ1 dual binding” value is given as “++”.
The compound `COc1ccccc1CCN1CCC2(CC1)CN(c1ccccc1)C(=O)C(C)O2` (stereo not drawn) [Example 57, 9-(2-methoxyphenethyl)-2-methyl-4-phenyl-1-oxa-4,9-diazaspiro[5.5]undecan-3-one hydrochloride] yielded a Ki of less than 0.1 µM.
Same read-out and setting: to `CC1OC2(CCN(CCc3ccccc3)CC2)CN(Cc2cccc(C(F)(F)F)n2)C1=O` (stereo not drawn) [Example 174, 2-methyl-9-phenethyl-4-((6-(trifluoromethyl)pyridin-2-yl)methyl)-1-oxa-4,9-diazaspiro[5.5]undecan-3-one hydrochloride] belongs less than 0.1 µM; to `CC1OC2(CCN(CCc3ccc(N)cc3)CC2)CN(c2ccccc2)C1=O` (stereo not drawn) [Example 228, 9-(4-aminophenethyl)-2-methyl-4-phenyl-1-oxa-4,9-diazaspiro[5.5]undecan-3-one], less than 0.5 µM; to `CC1OC2(CCN(CCc3cccc(OCCO)c3)CC2)CN(c2ccccc2F)C1=O` (stereo not drawn) [Example 282, 4-(2-fluorophenyl)-9-(3-(2-hydroxyethoxy)phenethyl)-2-methyl-1-oxa-4,9-diazaspiro[5.5]undecan-3-one], less than 0.1 µM.
Still for that read-out and setting: to `CC1OC2(CCN(CCc3ccc(F)cn3)CC2)CN(c2ccccc2)C1=O` (stereo not drawn) [Example 94, 9-(2-(5-fluoropyridin-2-yl)ethyl)-2-methyl-4-phenyl-1-oxa-4,9-diazaspiro[5.5]undecan-3-one hydrochloride] belongs less than 0.5 µM.

Staying with this experiment, now noted: combined class from Ki-σ1 (human σ1 receptor, A1) and Ki-μ (human μ-opioid receptor, A2) radioligand binding.
As to `CC1OC2(CCN(CCc3ccccc3)CC2)CN(c2cnn(C)c2)C1=O` (stereo not drawn) [Example 210, 2-methyl-4-(1-methyl-1H-pyrazol-4-yl)-9-phenethyl-1-oxa-4,9-diazaspiro[5.5]undecan-3-one], the “μ and σ1 dual binding” value was “++”.
Same read-out and setting: then `COc1ccnc(CCN2CCC3(CC2)CN(c2ccccc2)C(=O)C(C)O3)c1` (stereo not drawn) [Example 35, 9-(2-(4-methoxypyridin-2-yl)ethyl)-2-methyl-4-phenyl-1-oxa-4,9-diazaspiro[5.5]undecan-3-one], with “++”; and `O=C1N(c2cccnc2C(F)(F)F)CC2(CCN(CCc3cc(F)ccc3F)CC2)OC12CC2` [Example 341, 8-(2,5-difluorophenethyl)-12-(2-(trifluoromethyl)pyridin-3-yl)-4-oxa-8,12-diazadispiro[2.1.5.3]tridecan-13-one], with “++”.

Staying with this experiment, now noted: read-out: μ and σ1 dual binding.
As for `O=C1COC2(CCN(CCc3ccccn3)CC2)CN1Cc1ccc(C(F)(F)F)cn1` [Example 98, 9-(2-(pyridin-2-yl)ethyl)-4-((5-(trifluoromethyl)pyridin-2-yl)methyl)-1-oxa-4,9-diazaspiro[5.5]undecan-3-one hydrochloride], the Ki is less than 0.5 µM.
On to `CC1OC2(CCN(CCc3ccc(C(=O)N(C)C)cc3)CC2)CN(c2ccccc2)C1=O` (stereo not drawn) [Example 273, N,N-dimethyl-4-(2-(2-methyl-3-oxo-4-phenyl-1-oxa-4,9-diazaspiro[5.5]undecan-9-yl)ethyl)benzamide hydrochloride], for which the Ki is more than 0.5 µM.
The same measure, in the same setting: to `CN(C)C(=O)CCN1CC2(CCN(CCc3ccccc3)CC2)OC2(CC2)C1=O` [Example 182, N,N-dimethyl-3-[13-oxo-8-phenethyl-4-oxa-8,12-diazadispiro[2.1.5.3]tridecan-12-yl]propanamide hydrochloride] belongs more than 0.5 µM; to `CC1OC2(CCN(CCc3ncccn3)CC2)CN(c2ccccc2)C1=O` (stereo not drawn) [Example 26, 2-methyl-4-phenyl-9-(2-(pyrimidin-2-yl)ethyl)-1-oxa-4,9-diazaspiro[5.5]undecan-3-one hydrochloride], more than 0.5 µM.
On to `c1ccc(CN2CCOC3(CCN(CCc4ccccn4)CC3)C2)cc1` [Example 138, 4-benzyl-9-(2-(pyridin-2-yl)ethyl)-1-oxa-4,9-diazaspiro[5.5]undecane hydrochloride], for which the Ki was less than 0.1 µM.
Same read-out and setting: to `O=C1N(c2cccnc2C(F)(F)F)CC2(CCN(CCc3ccccc3F)CC2)OC12CC2` [Example 219, 8-(2-fluorophenethyl)-12-(2-(trifluoromethyl)pyridin-3-yl)-4-oxa-8,12-diazadispiro[2.1.5.3]tridecan-13-one] belongs less than 0.5 µM; to `CC1OC2(CCN(CCc3ccc(N)cn3)CC2)CN(c2ccccc2)C1=O` (stereo not drawn) [Example 236, 9-(2-(5-aminopyridin-2-yl)ethyl)-2-methyl-4-phenyl-1-oxa-4,9-diazaspiro[5.5]undecan-3-one], more than 0.5 µM; to `COC(=O)CC1OC2(CCN(CCc3ccccc3)CC2)CN(c2ccccc2)C1=O` (stereo not drawn) [Example 14, methyl 2-(3-oxo-9-phenethyl-4-phenyl-1-oxa-4,9-diazaspiro[5.5]undecan-2-yl)acetate hydrochloride], less than 0.1 µM.
`CC(=O)Nc1ccc(CCN2CCC3(CC2)CN(c2ccccc2)C(=O)C(C)O3)nc1` (stereo not drawn) [Example 252, N-(6-(2-(2-methyl-3-oxo-4-phenyl-1-oxa-4,9-diazaspiro[5.5]undecan-9-yl)ethyl)pyridin-3-yl)acetamide]: the Ki was more than 0.5 µM.
On the same count and under the same terms, then `CC1OC2(CCN(CC(=O)N3CCOCC3)CC2)CN(Cc2ccc(C(F)(F)F)cn2)C1=O` (stereo not drawn) [Example 124, 2-methyl-9-(2-morpholino-2-oxoethyl)-4-((5-(trifluoromethyl)pyridin-2-yl)methyl)-1-oxa-4,9-diazaspiro[5.5]undecan-3-one hydrochloride], with more than 0.5 µM; and `CC1OC2(CCN(CCc3ncccc3F)CC2)CN(Cc2ccc(F)cn2)C1=O` (stereo not drawn) [Example 47, 9-(2-(3-fluoropyridin-2-yl)ethyl)-4-((5-fluoropyridin-2-yl)methyl)-2-methyl-1-oxa-4,9-diazaspiro[5.5]undecan-3-one hydrochloride], with less than 0.5 µM.
Regarding `O=C1CO[C@]2(CCN(Cc3ccccc3)C2)CN1c1ccccc1` [Example 350, (S)-2-benzyl-9-phenyl-6-oxa-2,9-diazaspiro[4.5]decan-8-one], the Ki was more than 0.5 µM.
Still for that read-out and setting: to `O=C1COC2(CCN(CCc3ccccc3)CC2)CN1Cc1cscn1` [Example 167, 9-phenethyl-4-(thiazol-4-ylmethyl)-1-oxa-4,9-diazaspiro[5.5]undecan-3-one hydrochloride] belongs less than 0.1 µM.
For `CC1OC2(CCN(CCc3ccc([N+](=O)[O-])cn3)CC2)CN(c2ccccc2F)C1=O` (stereo not drawn) [Example 24, 4-(2-fluorophenyl)-2-methyl-9-(2-(5-nitropyridin-2-yl)ethyl)-1-oxa-4,9-diazaspiro[5.5]undecan-3-one], the Ki was more than 0.5 µM.
Still for that read-out and setting: to `CC(=O)Nc1cccnc1CCN1CCC2(CC1)CN(c1ccccc1F)C(=O)C(C)O2` (stereo not drawn) [Example 250, N-(2-(2-(4-(2-fluorophenyl)-2-methyl-3-oxo-1-oxa-4,9-diazaspiro[5.5]undecan-9-yl)ethyl)pyridin-3-yl)acetamide] belongs more than 0.5 µM; to `O=C1C(COCc2ccccc2)OC2(CCN(CCc3ccccc3)CC2)CN1c1ccccc1` (stereo not drawn) [Example 19, 2-((benzyloxy)methyl)-9-phenethyl-4-phenyl-1-oxa-4,9-diazaspiro[5.5]undecan-3-one hydrochloride], less than 0.1 µM.
Take `CC1OC2(CCN(CCc3ccccc3F)CC2)CN(c2cccnc2C(F)(F)F)C1=O` (stereo not drawn) [Example 130, 9-(2-fluorophenethyl)-2-methyl-4-(2-(trifluoromethyl)pyridin-3-yl)-1-oxa-4,9-diazaspiro[5.5]undecan-3-one dihydrochloride]: the Ki was less than 0.5 µM.
Same read-out and setting: to `COC(=O)CCN1CCC2(CC1)CN(c1ccccc1)C(=O)C(C)O2` (stereo not drawn) [Example 64, methyl 3-(2-methyl-3-oxo-4-phenyl-1-oxa-4,9-diazaspiro[5.5]undecan-9-yl)propanoate] belongs more than 0.5 µM.
Same read-out and setting: then `COc1ccc(CN2CC3(CCN(CCc4ccccc4F)CC3)OC3(CC3)C2=O)cc1` [Example 148, 8-(2-fluorophenethyl)-12-(4-methoxybenzyl)-4-oxa-8,12-diazadispiro[2.1.5.3]tridecan-13-one], with more than 0.5 µM; and `CC1OC2(CCN(CCc3ccccc3)CC2)CN(c2ccccc2Cl)C1=O` (stereo not drawn) [Example 193, 4-(2-chlorophenyl)-2-methyl-9-phenethyl-1-oxa-4,9-diazaspiro[5.5]undecan-3-one hydrochloride], with less than 0.1 µM.
Still for that read-out and setting: then `O=C1COC2(CCN(CCc3cccc(O)c3)CC2)CN1c1ccccc1` [Example 291, 9-(3-hydroxyphenethyl)-4-phenyl-1-oxa-4,9-diazaspiro[5.5]undecan-3-one], with less than 0.5 µM; and `O=C1COC2(CCN(CCc3ccccc3)CC2)CN1c1cccc(F)c1` [Example 191, 4-(3-fluorophenyl)-9-phenethyl-1-oxa-4,9-diazaspiro[5.5]undecan-3-one], with less than 0.5 µM; and `O=C1C(CO)OC2(CCN(CCc3ccccc3)CC2)CN1c1ccccc1` (stereo not drawn) [Example 283, 2-(hydroxymethyl)-9-phenethyl-4-phenyl-1-oxa-4,9-diazaspiro[5.5]undecan-3-one], with less than 0.5 µM.
For `CC1OC2(CCN(CCn3c(=O)oc4ccccc43)CC2)CN(c2ccccc2)C1=O` (stereo not drawn) [Example 74, 3-(2-(2-methyl-3-oxo-4-phenyl-1-oxa-4,9-diazaspiro[5.5]undecan-9-yl)ethyl)benzo[d]oxazol-2(3H)-one hydrochloride], the Ki was less than 0.5 µM.

These data come from patent US10703765B2 (priority 2014, dated 2020).
